Measurements reported in ChEMBL document CHEMBL1147190, “Acid-catalyzed synthesis of oxathiolone fused chalcones. Comparison of their activity toward various microorganisms and human cancer cells line” (Eur J Med Chem, 2007).
≈ marks a conversion by molar mass, not a printed value.

Legend:
[1] = test system: Salmonella typhimurium; experiment: Bacteriostatic activity against Salmonella Typhimurium PCM 2180 after 24 hrs by serial dilution microtiter plate method; format: functional, organism-based, Salmonella enterica subsp. enterica serovar Typhimurium; details: Salmonella enterica
[2] = test system: Staphylococcus aureus; experiment: Bacteriostatic activity against Staphylococcus aureus ATCC 9144 after 24 hrs by serial dilution microtiter plate method; format: functional, organism-based; details: ATCC 9144, 24 h
[3] = test system: Mycobacterium kansasii; experiment: Tuberculostatic activity against Mycobacterium kansasii; format: functional
[4] = test system: Escherichia coli; experiment: Bacteriostatic activity against Escherichia coli ATCC 11775 after 24 hrs by serial dilution microtiter plate method; format: functional, organism-based; details: ATCC 11775, 24 h
[5] = test system: Proteus vulgaris; experiment: Bacteriostatic activity against Proteus vulgaris ATCC 6380 after 24 hrs by serial dilution microtiter plate method; format: functional, organism-based; details: ATCC 6380, 24 h
[6] = test system: Micrococcus luteus; experiment: Bacteriostatic activity against Micrococcus luteus after 24 hrs by serial dilution microtiter plate method; format: functional, organism-based
[7] = test system: Candida albicans; experiment: Antifungal activity against Candida albicans ATCC 10261 after 48 hrs by serial dilution microtiter plate method; format: functional, organism-based; details: ATCC 10261, 48 h
[8] = test system: Mycobacterium tuberculosis; experiment: Tuberculostatic activity against Mycobacterium tuberculosis H37Rv; format: functional
[9] = test system: HeLa; experiment: Cytotoxicity against human HeLa S3 cells after 120 hrs by MTT assay; format: functional, cell-based

Row | SMILES | IC50 [1] [µg/mL] | IC50 [2] [µg/mL] | MIC [3] [µg/mL] | IC50 [4] [µg/mL] | IC50 [5] [µg/mL] | IC50 [6] [µg/mL] | IC50 [7] [µg/mL] | MIC [8] [µg/mL] | IC50 [9] [µM]
1 | COc1ccc2oc(=O)sc2c1C(=O)/C=C/c1ccccc1Cl | > 1000 | > 1000 | > 100 | > 1000 | > 1000 | > 1000 | > 1000 | 50 (≈ 144 µM) | 
2 | COc1ccc2oc(=O)sc2c1C(=O)/C=C/c1ccc(Br)cc1 | > 1000 | > 1000 | > 100 | > 1000 | > 1000 | > 1000 | > 1000 | > 100 | 
3 | COc1ccc(/C=C/C(=O)c2c(OC)ccc3oc(=O)sc23)cc1 | > 1000 | > 1000 | > 100 | > 1000 | > 1000 | > 1000 | > 1000 | > 100 | 
4 | COc1ccc2oc(=O)sc2c1C(=O)/C=C/c1ccccc1 | > 1000 | > 1000 | > 100 | > 1000 | > 1000 | > 1000 | > 1000 | > 100 | 8.4
5 | COc1ccc2oc(=O)sc2c1C(=O)/C=C/c1cccc(Cl)c1 | > 1000 | > 1000 | 100 (≈ 288 µM) | > 1000 | > 1000 | > 1000 | > 1000 | 25 (≈ 72.1 µM) | 
6 | COc1ccc2oc(=O)sc2c1C(=O)/C=C/c1ccc(OCCN2CCOCC2)cc1 | 250 (≈ 566 µM) | 31.2 (≈ 70.7 µM) | > 100 | 125 (≈ 283 µM) | 125 (≈ 283 µM) | 31.2 (≈ 70.7 µM) | 250 (≈ 566 µM) | 50 (≈ 113 µM) | 
7 | COc1ccc2oc(=O)sc2c1C(=O)/C=C/c1ccc(Cl)cc1 | > 1000 | 7.8 (≈ 22.5 µM) | > 100 | > 1000 | > 1000 | 15.6 (≈ 45 µM) | 62.5 (≈ 180 µM) | 100 (≈ 288 µM) | 5.2
8 | COc1ccc(/C=C/C(=O)c2c(OC)ccc3oc(=O)sc23)cc1OC | > 1000 | > 1000 | > 100 | > 1000 | > 1000 | > 1000 | > 1000 | > 100 | 14.1
9 | COc1ccc2oc(=O)sc2c1C(=O)/C=C/c1ccc([N+](=O)[O-])cc1 | > 1000 | > 1000 | > 100 | > 1000 | > 1000 | > 1000 | > 1000 | > 100 | 
10 | COc1ccc2oc(=O)sc2c1C(=O)/C=C/c1ccc(N(C)C)cc1 | > 1000 | > 1000 | > 100 | > 1000 | > 1000 | > 1000 | > 1000 | > 100 | > 100
11 | COc1ccc2oc(=O)sc2c1C(=O)/C=C/c1ccc(OCCN(C)C)cc1 | 250 (≈ 626 µM) | 15.6 (≈ 39.1 µM) | 100 (≈ 250 µM) | 125 (≈ 313 µM) | 125 (≈ 313 µM) | 15.6 (≈ 39.1 µM) | 125 (≈ 313 µM) | 100 (≈ 250 µM) | 8.3
